≈ marks a conversion by molar mass, not a printed value.

The nature of data set [1]: water-solubility. The settings on record: in water. Format: physicochemical. The procedure:
However, the water-solubility of both compounds is relatively low, namely I g/litre in the case of taurolidine and 8 g/litre in the case of taurultam. Relatively large quantities of the compounds are required where toxaemia is well established and even where the compounds are administered in large volumes by intravenous infusion, low solubility can limit their use. In particular, during treatment of patients suffering from septic shock and consequent renal insufficiency, administration of significant quantities of liquid (after an initial period of volume compensation) is contra-indicated and the intravenous infusion solution should be as concentrated as possible. Where glucose is present, this is also beneficial in such cases in order to support the brain cells.

Data set [2] in a line: intravenous infusion tolerance (vagotonic side effects). Format: in vivo. From the text: This is a surprising effect of considerable value in ensuring that taurolidine can be given intravenously at a rapid rate of infusion, for example in cases of endotoxin shock. In general, the overall intravenous tolerance of taurolidine is increased by the presence of glucose. The same advantages apply also to taurultam.

In data set [1], `O=S1(=O)CCNCN1` [taurultam] came in with a solubility of 8000 µg/mL (≈ 58.7 mM).

Regarding `O=S1(=O)CCN(CN2CCS(=O)(=O)NC2)CN1` [taurolidine], in data set [2] (2% aqueous taurolidine containing polyvinylpyrrolidone, administered intravenously, high rates of infusion), the “vagotonic side effects, such as meiosis, lachrymation, salivation, bradycardia and excitation” value is reported as “short duration vagotonic side effects occur”. Besides, the vagotonic effects result in data set [2] (administered in glucose solution rather than polyvinylpyrrolidone, intravenously) is “such vagotonic effects are not observed”.

The values are drawn from patent EP0253662B1, “Pharmaceutical compositions” (ED. GEISTLICH SÖHNE AG FÜR CHEMISCHE INDUSTRIE, priority 1986, dated 1988).
